Data as given in ChEMBL document CHEMBL4765473, “PF-07059013: A Noncovalent Modulator of Hemoglobin for Treatment of Sickle Cell Disease” (J Med Chem, 2021).
pIC50, pKd, pKi: −log10 of the molar value. In brackets after ≈: the same amount, converted by molar mass. Activity calls are given as the source filed them. The rule behind the calls is not given here.

Assays:
[1] = Drug metabolism in human hepatocytes assessed formation of acyl migration products; format: ADME, cell-based, Hepatocyte
[2] = Half life in human hepatocytes by NMR analysis; format: ADME, cell-based, Hepatocyte
[3] = Distribution coefficient, log D of the compound by shake flask method; format: physicochemical; conditions: octanol/water
[4] = Intrinsic clearance in human hepatocytes assessed per million cells; format: ADME, cell-based, Hepatocyte; conditions: read-out: CLH
[5] = Binding affinity to purified human cross-linked HbS by SPR analysis
[6] = Modulation of HbS (unknown origin) assessed as stabilization of the oxy-state of hemoglobin by measuring conversion from oxyHb (R) to deoxyHb (T) pre-incubated for 1 hr and measured after 120 mins by oxygen dissociation assay; parameters: species or system Homo sapiens
[7] = molecular target: T1, Voltage-gated inwardly rectifying potassium channel KCNH2 (Homo sapiens, UniProt Q12809); assay: Binding affinity to human ERG by dofetilide fluorescence polarization binding assay
T1 sequence (Q12809 whole entry): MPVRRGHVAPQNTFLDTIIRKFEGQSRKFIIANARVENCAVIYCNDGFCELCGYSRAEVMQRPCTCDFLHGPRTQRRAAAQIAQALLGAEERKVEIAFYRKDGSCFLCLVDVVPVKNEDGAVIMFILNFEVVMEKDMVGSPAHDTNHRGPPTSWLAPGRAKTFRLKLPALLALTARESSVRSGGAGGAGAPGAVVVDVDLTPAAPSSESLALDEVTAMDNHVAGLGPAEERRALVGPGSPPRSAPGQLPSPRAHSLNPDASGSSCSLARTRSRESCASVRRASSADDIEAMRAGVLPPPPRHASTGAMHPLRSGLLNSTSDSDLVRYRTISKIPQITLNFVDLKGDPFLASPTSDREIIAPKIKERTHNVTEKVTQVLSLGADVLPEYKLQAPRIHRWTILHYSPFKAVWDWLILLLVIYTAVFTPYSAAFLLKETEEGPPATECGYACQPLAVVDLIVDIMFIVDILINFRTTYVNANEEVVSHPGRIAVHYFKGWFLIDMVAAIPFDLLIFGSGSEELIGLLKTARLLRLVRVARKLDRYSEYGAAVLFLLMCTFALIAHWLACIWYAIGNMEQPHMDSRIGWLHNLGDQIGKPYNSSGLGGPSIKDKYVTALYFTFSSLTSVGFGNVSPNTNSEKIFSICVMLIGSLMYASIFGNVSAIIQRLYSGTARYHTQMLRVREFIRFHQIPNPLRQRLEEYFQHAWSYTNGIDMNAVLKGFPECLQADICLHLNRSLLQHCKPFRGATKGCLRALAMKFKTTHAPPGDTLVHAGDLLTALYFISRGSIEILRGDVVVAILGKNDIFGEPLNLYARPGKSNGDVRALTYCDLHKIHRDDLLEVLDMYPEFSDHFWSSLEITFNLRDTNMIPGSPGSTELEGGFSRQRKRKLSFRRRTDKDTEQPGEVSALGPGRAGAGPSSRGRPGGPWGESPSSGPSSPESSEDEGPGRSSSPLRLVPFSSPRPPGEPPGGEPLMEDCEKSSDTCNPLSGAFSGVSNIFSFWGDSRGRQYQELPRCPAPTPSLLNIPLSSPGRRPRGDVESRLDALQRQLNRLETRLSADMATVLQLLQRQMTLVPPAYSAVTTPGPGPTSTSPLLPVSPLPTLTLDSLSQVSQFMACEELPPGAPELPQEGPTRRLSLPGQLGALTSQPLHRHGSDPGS

[8] = Apparent permeability in MDCK cells; format: ADME, cell-based, Canis lupus familiaris; conditions: dog
Cytochrome P450 2C8 = molecular target: T2, Cytochrome P450 2C8 (Homo sapiens, UniProt P10632); assay: Inhibition of CYP2C8 (unknown origin); format: ADME
T2 sequence (P10632 whole entry): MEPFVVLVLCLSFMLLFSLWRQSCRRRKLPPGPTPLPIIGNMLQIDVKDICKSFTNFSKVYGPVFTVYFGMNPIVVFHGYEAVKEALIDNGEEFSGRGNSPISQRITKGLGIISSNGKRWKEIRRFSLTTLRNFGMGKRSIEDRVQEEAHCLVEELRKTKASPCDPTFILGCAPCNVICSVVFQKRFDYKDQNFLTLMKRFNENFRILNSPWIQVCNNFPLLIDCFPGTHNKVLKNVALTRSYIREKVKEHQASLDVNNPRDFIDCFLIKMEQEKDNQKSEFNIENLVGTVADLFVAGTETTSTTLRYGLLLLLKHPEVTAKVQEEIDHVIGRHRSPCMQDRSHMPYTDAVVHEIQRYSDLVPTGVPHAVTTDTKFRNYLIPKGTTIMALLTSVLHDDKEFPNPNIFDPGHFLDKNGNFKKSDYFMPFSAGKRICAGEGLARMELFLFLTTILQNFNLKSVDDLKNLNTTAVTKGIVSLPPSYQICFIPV

Cytochrome P450 2D6 = Cytochrome P450 2D6 (Homo sapiens, UniProt P10635); assay: Inhibition of CYP2D6 (unknown origin); format: ADME
Cytochrome P450 2D6, sequence (P10635 whole entry): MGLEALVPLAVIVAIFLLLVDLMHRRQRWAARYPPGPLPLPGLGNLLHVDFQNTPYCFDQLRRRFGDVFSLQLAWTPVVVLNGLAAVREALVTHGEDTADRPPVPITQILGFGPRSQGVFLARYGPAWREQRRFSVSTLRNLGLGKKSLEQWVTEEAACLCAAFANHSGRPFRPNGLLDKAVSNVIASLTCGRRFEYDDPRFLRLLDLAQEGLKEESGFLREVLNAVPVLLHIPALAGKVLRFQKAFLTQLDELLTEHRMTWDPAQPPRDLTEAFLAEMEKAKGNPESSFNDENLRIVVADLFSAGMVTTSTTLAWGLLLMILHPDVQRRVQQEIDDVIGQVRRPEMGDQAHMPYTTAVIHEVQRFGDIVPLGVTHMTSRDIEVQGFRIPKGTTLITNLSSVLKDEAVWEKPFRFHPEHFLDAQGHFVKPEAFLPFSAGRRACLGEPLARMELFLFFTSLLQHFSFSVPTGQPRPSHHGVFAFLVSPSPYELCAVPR

Cytochrome P450 2C9 = Cytochrome P450 2C9 (Homo sapiens, UniProt P11712); assay: Inhibition of CYP2C9 (unknown origin); format: ADME
Cytochrome P450 2C9, sequence (P11712 whole entry): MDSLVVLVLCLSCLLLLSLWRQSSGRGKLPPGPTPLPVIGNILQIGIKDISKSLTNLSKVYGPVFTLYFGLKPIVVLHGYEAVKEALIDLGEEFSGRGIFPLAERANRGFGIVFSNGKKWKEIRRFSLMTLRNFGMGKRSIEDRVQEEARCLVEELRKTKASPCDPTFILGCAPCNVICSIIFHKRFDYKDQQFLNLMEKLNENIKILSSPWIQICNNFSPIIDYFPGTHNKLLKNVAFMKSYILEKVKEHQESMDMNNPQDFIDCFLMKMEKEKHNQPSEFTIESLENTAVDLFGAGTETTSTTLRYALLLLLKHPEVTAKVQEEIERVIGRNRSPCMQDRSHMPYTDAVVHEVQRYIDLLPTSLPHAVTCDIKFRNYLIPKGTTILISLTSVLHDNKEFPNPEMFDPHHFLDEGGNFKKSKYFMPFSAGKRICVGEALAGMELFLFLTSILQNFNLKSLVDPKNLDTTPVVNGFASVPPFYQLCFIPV

[9] = Protein binding in human blood; format: ADME, tissue-based
[10] = Apparent permeability from basolateral to apical side in MDCK-MDR1 cells; format: ADME, cell-based, Canis lupus familiaris; conditions: dog
[11] = molecular target: T1, Voltage-gated inwardly rectifying potassium channel KCNH2; assay: Inhibition of human ERG by patch clamp assay
[12] = Unbound fraction in human plasma; format: ADME, cell-free
[13] = Drug metabolism in human hepatocytes assessed formation of acyl glucuronides metabolites; format: ADME, cell-based, Hepatocyte
[14] = Protein binding in human RBC assessed as unbound fraction at 1 mM; format: ADME, tissue-based, Erythrocyte; conditions: red blood cells (RBC)
Mus musculus [15] = assay: Binding to HbS in sickle Townes mouse at 30 to 900 mg/kg, po dosed via gavage measured after 0.5 to 24 hrs by Hemox-analyzer based assay; format: functional, organism-based; conditions: dose 30-900 mg/kg, time 0.5-24 hrs
Cytochrome P450 3A4 = Cytochrome P450 3A4 (Homo sapiens, UniProt P08684); assay: Inhibition of CYP3A4 (unknown origin); format: ADME
Cytochrome P450 3A4, sequence (P08684 whole entry): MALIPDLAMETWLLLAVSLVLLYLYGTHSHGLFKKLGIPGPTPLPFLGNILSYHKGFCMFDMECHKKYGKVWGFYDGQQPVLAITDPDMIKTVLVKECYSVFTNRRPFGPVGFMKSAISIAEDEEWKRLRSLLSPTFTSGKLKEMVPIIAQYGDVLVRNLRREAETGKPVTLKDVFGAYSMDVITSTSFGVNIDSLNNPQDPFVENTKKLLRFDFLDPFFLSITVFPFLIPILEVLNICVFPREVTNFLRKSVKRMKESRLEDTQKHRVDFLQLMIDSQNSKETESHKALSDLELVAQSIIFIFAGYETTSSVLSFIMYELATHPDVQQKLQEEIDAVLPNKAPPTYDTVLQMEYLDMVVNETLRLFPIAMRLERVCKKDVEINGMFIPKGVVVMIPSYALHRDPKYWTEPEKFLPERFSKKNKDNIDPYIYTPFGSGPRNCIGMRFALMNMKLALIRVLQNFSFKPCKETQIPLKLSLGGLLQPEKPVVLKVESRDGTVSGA

[16] = Drug metabolism in human hepatocytes assessed formation of glucuronide metabolites; format: ADME, cell-based, Hepatocyte
Cytochrome P450 1A2 = molecular target: T3, Cytochrome P450 1A2 (Homo sapiens, UniProt P05177); assay: Inhibition of CYP1A2 (unknown origin); format: ADME
T3 sequence (P05177 whole entry): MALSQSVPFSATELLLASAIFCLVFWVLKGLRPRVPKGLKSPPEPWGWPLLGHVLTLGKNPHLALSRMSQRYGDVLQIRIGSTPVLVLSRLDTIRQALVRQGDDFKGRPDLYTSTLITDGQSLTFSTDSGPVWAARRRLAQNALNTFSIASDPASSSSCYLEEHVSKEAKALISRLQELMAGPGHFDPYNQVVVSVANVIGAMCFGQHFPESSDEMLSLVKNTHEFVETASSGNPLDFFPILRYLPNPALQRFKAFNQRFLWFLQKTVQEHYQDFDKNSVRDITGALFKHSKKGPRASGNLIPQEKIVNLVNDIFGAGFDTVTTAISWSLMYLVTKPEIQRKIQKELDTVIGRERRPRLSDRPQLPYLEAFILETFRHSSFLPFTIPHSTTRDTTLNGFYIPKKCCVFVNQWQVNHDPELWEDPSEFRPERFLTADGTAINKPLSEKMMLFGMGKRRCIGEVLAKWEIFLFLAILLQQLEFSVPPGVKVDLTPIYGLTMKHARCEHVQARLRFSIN

[17] = Apparent permeability from apical to basolateral side in MDCK-MDR1 cells; format: ADME, cell-based, Canis lupus familiaris; conditions: dog
CYP2C9 = CYP2C9 (Homo sapiens, UniProt P11712); assay: Inhibition of CYP2C9 (unknown origin) at 3 uM relative to control; format: ADME
CYP2C9, sequence (P11712 whole entry): as the sequence (P11712 whole entry) above

CYP3A4 = CYP3A4 (Homo sapiens, UniProt P08684); assay: Inhibition of CYP3A4 (unknown origin) at 3 uM relative to control; format: ADME
CYP3A4, sequence (P08684 whole entry): as the sequence (P08684 whole entry) above

Homo sapiens [18] = species on record: Homo sapiens; assay: Binding affinity to HbS (unknown origin) by ITC analysis; conditions: filed as modulator
[19] = Intrinsic clearance in mouse hepatocytes assessed per million cells; format: ADME, cell-based, Hepatocyte; conditions: read-out: CLH
CYP2C8 = molecular target: T4, CYP2C8 (Homo sapiens, UniProt P10632); assay: Inhibition of CYP2C8 (unknown origin) at 3 uM relative to control; format: ADME
T4 sequence (P10632 whole entry): T2 sequence (P10632 whole entry)

CYP2D6 = CYP2D6 (Homo sapiens, UniProt P10635); assay: Inhibition of CYP2D6 (unknown origin) at 3 uM relative to control; format: ADME
CYP2D6, sequence (P10635 whole entry): as the sequence (P10635 whole entry) above

CYP1A2 = molecular target: T5, CYP1A2 (Homo sapiens, UniProt P05177); assay: Inhibition of CYP1A2 (unknown origin) at 3 uM relative to control; format: ADME
T5 sequence (P05177 whole entry): T3 sequence (P05177 whole entry)

Mus musculus [20] = assay: Binding to HbS in sickle Townes mouse at 10 to 490 mg/kg, po dosed via gavage measured after 0.5 to 24 hrs by Hemox-analyzer based assay; format: functional, organism-based; conditions: dose 10-490 mg/kg, time 0.5-24 hrs
[21] = Modulation activity at HbS in sickle Townes mouse assessed as decrease in RBC sickling at 200 mg/kg, po BID for 15 days dosed via gavage by Hemox-analyzer based assay; format: functional; parameters: scale not given: the % may be the effect or the level left; conditions: time 15 day
[22] = Kinetic solubility of the compound; format: physicochemical; conditions: read-out: Kinetic_solubility
[23] = Thermodynamic solubility of the compound; format: physicochemical; conditions: read-out: Therm_solubility
Homo sapiens [24] = species on record: Homo sapiens; assay: Binding affinity to HbS tetramer (unknown origin) by ESI-MS analysis; conditions: filed as modulator

Row | Compound | logD [3] | hepatocyte CLint [4] [µL/min/1e6 cells] | pKd [5] | pIC50 [6] | pKi [7] | also measured
1 | C=CCOC(=O)[C@H]1O[C@@H](OC(=O)c2ccc(-n3cccn3)c([C@H](C)Oc3cc4cc(F)cc(F)c4nc3N)c2)[C@H](O)[C@@H](O)[C@@H]1O | – | – | – | – | – | Drug metabolism [1]: Metabolite_Detected; half-life [2]: 131 min
2 | C[C@H](Oc1cc2cc(C(N)=O)ccc2nc1N)c1nc(OCCO)ccc1-n1cccn1 | 1.8 | 3 | 6.85 | 5.28 | – | –
3 | C[C@H](Oc1cc2cc(F)ccc2nc1N)c1cc2c(cnn2CCO)cc1-n1cccn1 | 3.3 | – | 7.70 | 5.35 | 5.08 | –
4 | C[C@H](Oc1cc2cc(F)ccc2nc1N)c1cc(F)c(F)cc1-n1cccn1 | 4.1 | 57 | 6.94 | 5.24 | 5.36 | –
5 | C[C@H](Oc1cc2c(F)ccc(F)c2nc1N)c1cc(C(=O)O)ccc1-n1cccn1 | 1.1 | < 3 | 7.19 | 5.35 | – | –
6 | C[C@H](Oc1cc2cc(C(N)=O)ccc2nc1N)c1cc2[nH]ncc2cc1-n1cccn1 | 2.7 | < 3 | 7.44 | 5.26 | 4.89 | Papp [8]: 1.4 ×10⁻⁶ cm/s
7 | C[C@H](Oc1cc2cc(C(N)=O)ccc2nc1N)c1cc(F)c(F)cc1-n1cccn1 | 3.2 | 14 | 6.91 | 5.27 | 5.39 | –
8 | Cc1n[nH]cc1-c1cnc(N)c(O[C@H](C)c2cc(F)ccc2-n2cccn2)c1 | – | – | < 3.52 | – | – | –
9 | C[C@H](Oc1cc2cc(C(N)=O)ccc2nc1N)c1cc2c(cnn2CCO)cc1-n1cccn1 | 2.1 | 4 | 7.23 | 5.37 | < 4.40 | –
10 | C[C@H](Oc1cc2cc(F)cc(F)c2nc1N)c1cc(C(=O)O)ccc1-n1cccn1 | 1 | < 3 | 7.43 | 5.34 | 4.40 | pIC50 (Cytochrome P450 2C8): 4.76; pIC50 (Cytochrome P450 2D6): < 4.52; pIC50 (Cytochrome P450 2C9): 4.69; PB [9]: Dose-dependent effect; Papp B→A [10]: 4 ×10⁻⁶ cm/s; pIC50 [11]: 3.84; fraction unbound [12]: 0.027; Drug metabolism [13]: Metabolite_Detected; fraction unbound at 1000 µM [14]: 0.000577; PPB (Mus musculus [15]): Dose-dependent effect; pIC50 (Cytochrome P450 3A4): < 4.52; Drug metabolism [16]: Metabolite_Detected; pIC50 (Cytochrome P450 1A2): < 4.52; Papp [8]: 3 ×10⁻⁶ cm/s; Papp A→B [17]: 0.4 ×10⁻⁶ cm/s
11 | Cc1n[nH]cc1-c1cnc(N)c(O[C@@H](C)c2cc(F)ccc2-n2cccn2)c1 | 3.2 | 23 | 5.44 | 4.68 | 5.42 | inhibition at 3 µM (CYP2C9): < 50%; inhibition at 3 µM (CYP3A4): < 50%; Activity (Homo sapiens [18]): Active; hepatocyte CLint [19]: 104 µL/min/1e6 cells; inhibition at 3 µM (CYP2C8): < 50%; inhibition at 3 µM (CYP2D6): < 50%; inhibition at 3 µM (CYP1A2): < 50%; Papp [8]: 24 ×10⁻⁶ cm/s
12 | C[C@H](Oc1cc2cc(F)ccc2nc1N)c1[nH]c(=O)ccc1-n1cccn1 [PF-07059013] | 2.4 | 18 | 7.47 | 5.32 | < 4.44 | pIC50 (Cytochrome P450 2C8): 4.66; PPB (Mus musculus [20]): Dose-dependent effect; pIC50 (Cytochrome P450 2D6): < 4.52; pIC50 (Cytochrome P450 2C9): 4.60; PB [9]: Dose-dependent effect; Papp B→A [10]: 14 ×10⁻⁶ cm/s; Activity [21]: 37.8%; pIC50 [11]: 4.37; fraction unbound [12]: 0.162; fraction unbound at 1000 µM [14]: 0.000598; pIC50 (Cytochrome P450 3A4): < 4.52; Drug metabolism [16]: Metabolite_Detected; pIC50 (Cytochrome P450 1A2): 4.61; Papp [8]: 20 ×10⁻⁶ cm/s; Papp A→B [17]: 0.1 ×10⁻⁶ cm/s
13 | C[C@H](Oc1cc2cc(C#N)ccc2nc1N)c1cc(F)c(F)cc1-n1cccn1 | 4.3 | 24 | 6.42 | 5.26 | 4.72 | –
14 | C[C@H](Oc1cc2cc(C#N)ccc2nc1N)c1cc(F)ccc1-n1cccn1 | 3.8 | 40 | 6.49 | 5.21 | < 4.40 | –
15 | C[C@H](Oc1cc2cc(C(N)=O)cc(F)c2nc1N)c1ncc(F)cc1-n1cccn1 | 2.1 | 4 | 7.17 | 5.41 | < 4.40 | solubility kinetic [22]: 0.5 µg/mL (≈ 1.22 µM); solubility thermodynamic [23]: 0.6 µg/mL (≈ 1.46 µM)
16 | C[C@H](Oc1cc2cc(F)cc(F)c2nc1N)c1[nH]c(=O)ccc1-n1cccn1 | 2.6 | 17 | 7.85 | 5.37 | 4.20 | –
17 | C[C@H](Oc1cc2cc(F)ccc2nc1N)c1cc2c(cnn2CC(=O)O)cc1-n1cccn1 | 0.5 | 21 | 8.05 | 5.43 | < 4.40 | –
18 | C[C@H](Oc1cc2cc(C(N)=O)ccc2nc1N)c1cc(F)ccc1-n1cccn1 | 3 | 13 | 6.40 | 4.96 | 4.62 | –
19 | C[C@H](Oc1cc2cc(F)ccc2nc1N)c1cc(C(=O)O)ccc1-n1cccn1 | 0.9 | 4 | 7.00 | 5.31 | < 4.40 | –
20 | C[C@H](Oc1cc2ccccc2nc1N)c1cc(F)ccc1-n1cccn1 | 4 | – | 5.82 | 4.77 | – | –
21 | C[C@H](Oc1cc2cc(C(N)=O)ccc2nc1N)c1ncc(F)cc1-n1cccn1 | 1.9 | < 2 | 6.74 | 5.27 | 4.47 | solubility kinetic [22]: 28.5 µg/mL (≈ 72.6 µM); solubility thermodynamic [23]: 5.3 µg/mL (≈ 13.5 µM)
22 | Cc1n[nH]cc1-c1cnc(N)c(OC(C)c2cc(F)ccc2-n2cccn2)c1 (racemic) | – | – | – | – | – | Activity (Homo sapiens [24]): Active
